Measurements reported in patent publication US11352358B2, “FXR agonist” (XUANZHU BIOPHARMACEUTICAL CO., LTD., priority 2017, dated 2022).

Key:
BSEP mRNA in HepG2 cells [1] = test: Relative expression of BSEP mRNA in HepG2 cells (qPCR), Experimental Example 1; assay type: cell-based, human; details: 24 hrs, expression under 3 μM of PX-104 as 100%
Procedure: compounds of the present invention (for their chemical names and preparation methods, see the preparation example of each compound); compound PX-104 and compound 30-70 (for their structures, see the background of the invention, and for their preparation methods, see patent applications WO2011020615A1 and WO2012087519A1).
(§1) Cells were digested with pancreatin and collected, and the concentration of the cells was determined; according to the counting result, the cells were resuspended to a density of 7.5×10^5 cells/mL; 2 mL of the cell suspension was inoculated in each well of a 6-well cell culture plate; and the culture plate was placed in an incubator and cultured under the conditions of 37° C. and 5% CO2 for 24 hrs.
The to-be-tested compounds were diluted to 0.3 mM and 3 mM with DMSO; and 5 μL of each stock solution diluted in the previous step was added to 5 mL of medium individually. The concentrations of the obtained working solutions were 0.3 μM and 3 μM respectively. In the control group, medium was prepared by using equivoluminal DMSO instead of the stock solutions; the cell culture plate was taken out from the incubator; the medium was removed from the cell culture plate, and the working solutions and the control medium were added correspondingly; and the culture plate was then put back into the incubator and cultured under the conditions of 37° C. and 5% CO2 for 24 hrs.
after treatment for 24 hrs, the cell culture plate was taken out, and the medium was removed from the plate; the cells were rinsed three times with pre-cooled (4° C.) PBS; and 200 μL of pancreatin (preheated to 37° C.) was added to each well, and the plate was then gently shaken such that the pancreatin could evenly cover the plate bottom. The culture plate was then placed back into the incubator and incubated until the cells were separated from the plate bottom. 1 mL of medium was added to terminate digestion. The solution was gently pipetted and blown for several times with a pipettor, all the substances in each well were pipetted into a 1.5 mL Rnase-free centrifuge tube and centrifuged at 200×g for 5 mins; supernatants were removed to collect cell samples.
Cell lysis: Fresh RNA lysis buffer was prepared (wherein 10 μL of 2-mercaptoethanol was added to 1 mL of lysis buffer); 600 μL of lysis buffer was added to each cell sample; the cells were lysed completely by 1 to 2 mins of vigorous vortexing; the cell lysates were centrifuged at 12,000×g for 5 mins; and the supernatants were transferred to 1.5 mL Rnase-free centrifuge tubes.
Extraction and purification of RNA: An equal amount of 70% ethanol was added to each cell lysate; the centrifuge tubes were then shaken vigorously, and the buffer was mixed sufficiently, so that the particulate precipitates that might be formed after the addition of ethanol were dispersed as even as possible; and adsorption columns were put into collecting tubes, and the mixtures were transferred to the adsorption columns. 700 μL was transferred at most each time; and the solutions were centrifuged at 12,000×g under room temperature for 15 secs. The solutions in the collecting tubes were discarded, and the adsorption columns were put into the collecting tubes once again; and all the remaining mixtures were then transferred into the adsorption columns. 700 μL of eluent I was added to the adsorption column; and the solutions were centrifuged at 12,000×g under room temperature for 15 secs. The adsorption columns were put into new collecting tubes; 500 μL of eluent II was added to the adsorption column; and the solutions were centrifuged at 12,000×g under room temperature for 15 secs. […]

[2] = Liver microsome metabolism stability, human liver microsome; assay type: in vitro ADME; details: 0.5 mg protein/mL, test sample 1 μM, β-NADPH
Procedure: (§2) Test samples: the homemade compounds 1, 2, 4 and 5 of the present invention (for their chemical names and preparation methods, see the preparation example for each compound).
(§3) a mixed liver microsomes of SD rat and human both purchased from XenoTech, with batch Nos.: 1410271 (SD rat) and 1410013 (human) respectively, wherein the microsomal protein concentrations both were 20 mg mL^−1;
(§4) experimental promoter β-NADPH purchased from Roche (batch No.: 524F0231); and a phosphate buffer solution (pH 7.4) made in the lab.
(§5) An appropriate amount of the test sample powder was weighed accurately, and dissolved in an appropriate amount of dimethyl sulfoxide (DMSO) to a concentration of 1 mM; and the solution was then diluted by 20 times with methanol to yield a 50 μM working solution.
(§6) (1) According to the proportions in table 3 “Composition of the incubation system for liver microsome metabolism stability experiment” above, for each compound, 6 mL of PBS (100 mM), 0.6 mL of MgCl2 solution (20 mM) and 3.66 mL of H2O were made into a mixed solution 1 for the incubation system (not containing the microsomes, the test sample and β-NADPH).
(§7) (2) Liver microsomes (20 mg protein/mL) were taken from a refrigerator (−80° C.), and were placed on a thermostatic water bath oscillator (37° C.) and pre-incubated for 3 mins.
(§8) (3) For each compound, 1.88 mL of the mixed solution 1 for the incubation system was added with 55 μL of microsomes to obtain a mixed solution 2 for the incubation system (not containing the test sample and β-NADPH).
(§9) (4) Sample group (containing the microsomes and D-NADPH): 616 μL of mixed solution 2 for the incubation system was added with 14 μL of the test sample working solution (with a concentration of 50 μM), and with 70 μL of R-NADPH working solution (10 mM). The resulted solution was well mixed, and the resulted solution was then duplicated. The time points of sampling were at 0 min, 5th min, 10th min, 20th min, 30th min and 60th min.
(§10) (5) Control group (containing the microsomes, and water instead of D-NADPH): 264 μL of mixed solution 2 for the incubation system was added with 6 μL of the test sample working solution (50 μM), and with 30 μL of water. The resulted solution was well mixed, and the resulted solution was then duplicated. The time points of sampling were at 0 min and 60th min.
(§11) (6) 50 μL of sample was taken from an incubating sample tube at each predetermined time point, added to a terminating sample tube (containing 300 μL of cold terminator), and vortexed; and the reaction was terminated.
(§12) (7) after 10 mins of vortexing, the solution was centrifuged for 5 mins (12,000 rpm).
(§13) (8) 100 μL of supernatant was taken and added with 100 μL of water, and the mixture solution was thoroughly vortexed; and the solution was then analyzed by LC-MS/MS.
(§14) Percentages of residual contents were calculated according to the following formula.

[3] = Liver microsome metabolism stability, rat liver microsome; assay type: in vitro ADME, SD rat; details: 0.5 mg protein/mL, test sample 1 μM, β-NADPH
Procedure: as §2, §3, §4, §5, §6, §7, §8, §9, §10, §11, §12, §13, §14

SHP mRNA in AML12 cells = test: Relative expression of SHP mRNA in AML12 cells, EC50 (Experimental Example 4); assay type: cell-based; details: Mus musculus, 24 hrs
Procedure: (§15) compounds of the present invention (for their chemical names and preparation methods, see the preparation example for each compound).
AML12 cells: mouse liver cells.
(§16) Control: compound 1-1B with a structure shown as follows, prepared according to a prior art method (for detailed information, see patent application WO2012087519A1).
as §1, with “of 7.5×10^4” for “of 7.5×10^5”, “cells/mL; 1” for “cells/mL; 2”, “a 12-well” for “a 6-well”
The compound were diluted to 1000, 200, 8, 1.6, 0.32, 0.128, 0.0256 and 0.00512 μM with DMSO. Compound solutions of different concentrations obtained in the previous step were further diluted by 1000 times with media to obtain working solutions, and a medium containing 0.1% of DMSO was adopted as a control group. The cell culture plate was taken out from the incubator, the medium was removed, and the working solutions and the control medium were added. The culture plate was placed back into the incubator and cultured under the conditions of 37° C. and 5% CO2 for 24 hrs.
after treatment for 24 hrs, the cell culture plate was taken out from the incubator, and the medium was removed from the plate; the cells were rinsed three times with pre-cooled (4° C.) PBS (phosphate buffer solution); and 200 μL of pancreatin (preheated to 37° C.) was added to each well, and the plate was then gently shaken such that the pancreatin could evenly cover the plate bottom. The culture plate was then placed back into the incubator and incubated until the cells were separated from the plate bottom. 1 mL of medium was added to terminate digestion. […]

SHP mRNA in HepG2 cells = test: Relative expression of SHP mRNA in HepG2 cells, EC50 (Experimental Example 3); assay type: cell-based; details: Homo sapiens, 24 hrs
Procedure: as §15
(§17) HepG2 cell: human liver cancer cell;
SHP: small heterodimer partner;
as §16, §1
(§18) The compounds were diluted to 3000, 1000, 200, 8, 1.6, 0.32, 0.0128, 0.00256 and 0.000512 μM with DMSO. Compound solutions of different concentrations obtained in the previous step were further diluted by 1,000 times with media to obtain working solutions, and a medium containing 0.1% of DMSO was adopted as a control group. The cell culture plate was taken out from the incubator, the medium was removed, and the working solutions and the control medium were added. The culture plate was placed back into the incubator and cultured under the conditions of 37° C. and 5% CO2 for 24 hrs. […]

[4] = system: CYP7A1 mRNA in HepG2 cells; test: Relative expression of CYP7A1 mRNA in HepG2 cells, IC50 (Experimental Example 3); assay type: cell-based; details: Homo sapiens, 24 hrs
Procedure: as §15, §17
CYP7A1: cholesterol 7-alpha hydroxylase;
as §16, §1, §18

BSEP mRNA in HepG2 cells [5] = test: Relative expression of BSEP mRNA in HepG2 cells, EC50 (Experimental Example 3); assay type: cell-based; details: Homo sapiens, 24 hrs
Procedure: as §15, §17
BSEP: bile salt export pump;
as §16, §1, §18

SMILES	relative expression of BSEP mRNA in HepG2 cells (BSEP mRNA in HepG2 cells [1]; Table 2, 0.3 μM)	relative expression of BSEP mRNA in HepG2 cells (BSEP mRNA in HepG2 cells [1]; Table 2, 3 μM)	Residual content (%) after 60 minutes of incubation [2]	Residual content (%) after 60 minutes of incubation [3]	relative expression of BSEP mRNA in HepG2 cells (BSEP mRNA in HepG2 cells [1]; Table 1, 0.3 μM)	relative expression of BSEP mRNA in HepG2 cells (BSEP mRNA in HepG2 cells [1]; Table 1, 3 μM)	EC50 (SHP mRNA in AML12 cells)	EC50 (SHP mRNA in HepG2 cells)	IC50 [4]	EC50 (BSEP mRNA in HepG2 cells [5])
COc1cc(C(=O)O)cc2sc(N3C[C@H]4C[C@@H]3C[C@@H]4OCc3c(-c4c(Cl)cccc4Cl)noc3C3CC3)nc12 (racemic) [Compound 1, 2-((RS, 4RS, 5SR)-5-((5-cyclopropyl-3-(2,6-dichlorophenyl)isoxazol-4-yl)methoxy)-2-azabicyclo[2.2.1]heptan-2-yl)-4-methoxybenzo[d]thiazole-6-carboxylic acid]	121%	102%	49%	53%						
O=C(O)c1ccc2nc(N3C[C@H]4C[C@@H]3C[C@@H]4OCc3c(-c4c(Cl)cccc4Cl)noc3C3CC3)sc2c1 (racemic) [Compound 2, 2-((1RS, 4RS, 5SR)-5-((5-cyclopropyl-3-(2,6-dichlorophenyl)isoxazol-4-yl)methoxy)-2-azabicyclo[2.2.1]heptan-2-yl)benzo[d]thiazole-6-carboxylic acid]			55%	94%	145%	179%				
O=C(O)c1cc(F)c2nc(N3C[C@H]4C[C@@H]3C[C@@H]4OCc3c(-c4c(Cl)cccc4Cl)noc3C3CC3)sc2c1 (racemic) [Compound 4, 2-((1RS, 4RS, 5SR)-5-((5-cyclopropyl-3-(2,6-dichlorophenyl)isoxazol-4-yl)methoxy)-2-azabicyclo[2.2.1]heptan-2-yl)-4-fluorobenzo[d]thiazole-6-carboxylic acid]	97%	96%	54%	69%						
Cc1cc(C(=O)O)cc2sc(N3C[C@H]4C[C@@H]3C[C@@H]4OCc3c(-c4c(Cl)cccc4Cl)noc3C3CC3)nc12 (racemic) [Compound 5, 2-((1RS, 4RS, 5SR)-5-((5-cyclopropyl-3-(2,6-dichlorophenyl)isoxazol-4-yl)methoxy)-2-azabicyclo[2.2.1]heptan-2-yl)-4-methylbenzo[d]thiazole-6-carboxylic acid]	103%	123%	31%	49%						
O=C(O)c1cc(F)c2nc(N3[C@@H]4CC[C@H]3C[C@@H](OCc3c(-c5ccccc5OC(F)(F)F)noc3C3CC3)C4)sc2c1 [Compound 1-1B, reference compound]							1.51 nM	0.26 nM	0.1 nM	0.75 nM
O=C(O)c1ccc2nc(N3[C@@H]4CC[C@H]3C[C@@H](OCc3c(-c5c(Cl)cccc5Cl)noc3C3CC3)C4)sc2c1 [Compound 30-70, reference compound]			20%		105%	146%				
O=C(O)c1ccc(C2CC2c2ccc(OCc3c(-c4c(Cl)cccc4Cl)noc3C3CC3)cc2Cl)cc1 (stereo not drawn) [PX-104, reference compound]	45%	100%			60%	100%				
